Experimental data published in patent publication US8883963B2 (Cadila Healthcare Limited, priority 2007, dated 2014).
Starred links: 1 amine or outer side, 2 acyl side, 3 side chain; linkers in the order of their positions; H or OH if unused. Non-standard residues stand in square brackets, D forms with d. Residues, ends and D or L forms follow the SMILES beside them. ξ: configuration not given here. ξBip(2'-Et-4'-OMe) = CCc1cc(OC)ccc1-c1ccc(CC(N)C(=O)O)cc1; X1 = O=C(C(CCCc1ccc(C(F)(F)F)cc1F)N[*:1])[*:2]; ξNva(5-(3-Cl-Ph)) = NC(CCCc1cccc(Cl)c1)C(=O)O; Ac5c = NC1(C(=O)O)CCCC1

Key:
[1] = tested on: RIN5F (Rat Insulinoma) cells; test: In vitro glucose-dependent insulin secretion (RIN5F cell assay screening protocol); format: cell-based; details: 16.7 mM glucose load
[2] = molecular target: T1, human glucagon receptor (Homo sapiens, UniProt P47871); test: In vitro human glucagon antagonist activity (inhibition of cAMP production) in CHO/human glucagon R cells; format: cell-based; details: with saturated concentration of glucagon peptide
T1 construct: The full-length cDNA was cloned in pcDNA3.1 (Invitrogen); expressed in transfected cells

[3] = molecular target: DPP IV (Homo sapiens, UniProt P27487); test: Stability against DPP IV enzyme; format: in vitro ADME; details: 37° C.; for % degradation of peptidomimetics in 24 h when incubated with DPP-IV enzyme: 2 μM peptidomimetic; for half-life at 2 μM: DPP IV enzyme, pH 7.8, 2 μM peptidomimetic, read-out: half-life (t1/2) when incubated with DPP-IV enzyme
Experimental: (§1) Reactions were terminated by the addition of TFA/H2O (15 mL, 10% (v/v)). […] The column was equilibrated with TFA/H20, at a flow rate of 1 mL/min.

[4] = Stability in human plasma; format: in vitro ADME; details: 2 μM peptidomimetic, pooled human plasma, 37° C.; for half-life at 2 μM: pH 7.8, read-out: half-life (t1/2) when incubated with human plasma
Experimental: as §1

[5] = Stability in simulated gastric fluid; format: in vitro ADME; details: 2 μM peptidomimetic, simulated gastric fluid pH 1.5, 37° C.; for half-life at 2 μM: read-out: half-life (t1/2) when incubated with simulated gastric fluid
Experimental: as §1

[6] = Stability in simulated intestinal fluid; format: in vitro ADME; details: 2 μM peptidomimetic, simulated intestinal fluid pH 7.5, 37° C.; for half-life at 2 μM: read-out: half-life (t1/2) when incubated with simulated intestinal fluid
Experimental: as §1

[7] = Stability in liver microsomes; format: in vitro ADME; details: 2 μM peptidomimetic, human liver microsomes, 37° C.; for half-life at 2 μM: pH 7.8, read-out: half-life (t1/2) when incubated with liver microsomes
Experimental: as §1

T1 sequence (P47871 26-477): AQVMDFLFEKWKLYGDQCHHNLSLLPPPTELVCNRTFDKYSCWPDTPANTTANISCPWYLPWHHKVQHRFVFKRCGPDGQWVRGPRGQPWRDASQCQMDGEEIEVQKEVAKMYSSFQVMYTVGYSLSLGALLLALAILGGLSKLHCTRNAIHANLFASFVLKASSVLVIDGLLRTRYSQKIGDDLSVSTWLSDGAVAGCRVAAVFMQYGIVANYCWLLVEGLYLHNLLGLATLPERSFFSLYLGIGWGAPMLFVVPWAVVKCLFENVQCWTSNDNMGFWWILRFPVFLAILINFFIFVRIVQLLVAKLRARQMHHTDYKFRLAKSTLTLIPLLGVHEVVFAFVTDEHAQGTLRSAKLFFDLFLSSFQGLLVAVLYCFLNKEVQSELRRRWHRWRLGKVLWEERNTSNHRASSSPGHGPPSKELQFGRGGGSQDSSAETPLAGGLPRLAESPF
DPP IV, sequence (P27487 whole entry, species assumed): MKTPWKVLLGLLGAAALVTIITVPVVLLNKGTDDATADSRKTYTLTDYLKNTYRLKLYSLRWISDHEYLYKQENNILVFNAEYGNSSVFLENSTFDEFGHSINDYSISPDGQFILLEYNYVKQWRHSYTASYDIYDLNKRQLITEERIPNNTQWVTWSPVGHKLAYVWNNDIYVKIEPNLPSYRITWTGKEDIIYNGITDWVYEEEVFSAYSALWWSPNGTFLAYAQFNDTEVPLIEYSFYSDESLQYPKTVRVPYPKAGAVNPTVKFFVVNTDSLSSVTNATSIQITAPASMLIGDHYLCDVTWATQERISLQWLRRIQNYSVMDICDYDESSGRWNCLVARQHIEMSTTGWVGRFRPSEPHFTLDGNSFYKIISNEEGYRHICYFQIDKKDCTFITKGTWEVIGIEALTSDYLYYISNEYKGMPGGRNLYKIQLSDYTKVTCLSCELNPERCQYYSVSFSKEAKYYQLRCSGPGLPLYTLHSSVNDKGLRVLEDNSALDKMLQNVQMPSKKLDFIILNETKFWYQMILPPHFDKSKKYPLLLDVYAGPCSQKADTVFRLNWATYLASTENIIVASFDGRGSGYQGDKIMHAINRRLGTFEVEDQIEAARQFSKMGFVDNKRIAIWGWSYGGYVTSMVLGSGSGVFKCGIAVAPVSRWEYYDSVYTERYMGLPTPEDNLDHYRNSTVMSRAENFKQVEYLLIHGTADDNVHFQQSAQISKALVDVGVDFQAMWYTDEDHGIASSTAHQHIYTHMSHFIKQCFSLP

Row | Structure (SMILES) | Insulin secretion ([1]; 0.1 nM test compd.) [pg/µg/h] | Insulin secretion ([1]; 1 nM test compd.) [pg/µg/h] | Insulin secretion ([1]; 10 nM test compd.) [pg/µg/h] | Human Glucagon receptor antagonistic activity shown as inhibition of cAMP production of Glucagon peptide ([2]; 1 nM test compound) [pmol/ml/μg prt] | Human Glucagon receptor antagonistic activity shown as inhibition of cAMP production of Glucagon peptide ([2]; 10 nM test compound) [pmol/ml/μg prt] | Human Glucagon receptor antagonistic activity shown as inhibition of cAMP production of Glucagon peptide ([2]; 100 nM test compound) [pmol/ml/μg prt] | Human Glucagon receptor antagonistic activity shown as inhibition of cAMP production of Glucagon peptide ([2]; 1 μM test compound) [pmol/ml/μg prt] | Human Glucagon receptor antagonistic activity shown as inhibition of cAMP production of Glucagon peptide ([2]; 10 μM test compound) [pmol/ml/μg prt] | % degradation of peptidomimetics in 24 h when incubated with DPP-IV enzyme [3] [%] | half-life at 2 μM [3] [h] | % degradation of peptidomimetics in 24 h when incubated with human plasma [4] [%] | half-life at 2 μM [4] [h] | half-life (t1/2) when incubated with simulated gastric fluid [5] | % degradation of peptidomimetics in 24 h when incubated with simulated gastric fluid [5] [%] | half-life (t1/2) when incubated with simulated intestinal fluid [6] | % degradation of peptidomimetics in 24 h when incubated with simulated intestinal fluid [6] [%] | % degradation of peptidomimetics in 24 h when incubated with liver microsomes [7] [%] | half-life at 2 μM [7] [h] | half-life at 2 μM [5] [h] | half-life at 2 μM [6] [h] | further results
1 | CCc1cc(OC)ccc1-c1ccc(CC(NC(=O)[C@H](CC(=O)O)NC(=O)[C@H](CO)NC(=O)[C@@H](NC(=O)[C@H](Cc2ccccc2)NC(=O)[C@@H](NC(=O)CNC(=O)[C@H](CCC(N)=O)NC(=O)[C@H](CO)NC(=O)[C@@H](N)Cc2c[nH]cn2)[C@@H](C)O)[C@@H](C)O)C(=O)NC(CCCc2ccc(C(F)(F)F)cc2F)C(N)=O)cc1 (some centres unmarked) [compound 49] (H-HSQGTFTSD[ξBip(2'-Et-4'-OMe)][X1]-NH2) | 16.1 ± 0.22 | 22.1 ± 0.26 | 36.0 ± 0.36 | 10 ± 0.03 | 8 ± 0.03 | 6 ± 0.22 | 2 ± 0.13 | 0 | 75 | 9 | 77 | 8 | (8) h | 14 | (6) h | 45 | 81 | 1 | – | – | –
2 | CCc1cc(OC)ccc1-c1ccc(CC(NC(=O)[C@H](CC(=O)O)NC(=O)[C@H](CO)NC(=O)[C@@H](NC(=O)C(C)(Cc2ccccc2F)NC(=O)[C@@H](NC(=O)CNC(=O)C(CCC#N)NC(=O)C(C)(C)NC(=O)[C@@H](N)Cc2c[nH]cn2)[C@H](C)O)[C@H](C)O)C(=O)N(C)C(CCCc2ccccc2F)C(N)=O)cc1 (single isomer, unassigned) [compound 132] | 13.1 ± 0.11 | 14.9 ± 0.17 | 28.8 ± 0.44 | 15 ± 0.11 | 12 ± 0.13 | 8 ± 0.09 | 4 ± 0.01 | 2 ± 0.08 | 75 | 9 | 77 | 8 | (8) h | 14 | (6) h | 45 | 81 | 1 | – | – | –
3 | CCc1cc(OC)ccc1-c1ccc(CC(NC(=O)[C@H](CC(=O)O)NC(=O)[C@H](CO)NC(=O)[C@@H](NC(=O)[C@H](Cc2ccccc2)NC(=O)[C@@H](NC(=O)CNC(=O)[C@H](CCC(N)=O)NC(=O)C2(NC(=O)[C@@H](N)Cc3c[nH]cn3)CCCC2)[C@@H](C)O)[C@@H](C)O)C(=O)NC(CCCc2cccc(Cl)c2)C(N)=O)cc1 (some centres unmarked) [compound 27] (H-H[Ac5c]QGTFTSD[ξBip(2'-Et-4'-OMe)][ξNva(5-(3-Cl-Ph))]-NH2) | 16.4 ± 0.12 | 22.7 ± 0.17 | 36.6 ± 0.05 | – | – | – | – | – | 00 | > 24 | 00 | > 24 | – | 00 | – | 00 | 31 | – | > 24 | > 24 | half-life (t1/2) when incubated with liver microsomes [7]: (5) h
4 | CCc1cc(OC)ccc1-c1ccc(CC(NC(=O)[C@H](CC(=O)O)NC(=O)[C@H](CO)NC(=O)[C@@H](NC(=O)[C@H](Cc2ccccc2)NC(=O)[C@@H](NC(=O)CNC(=O)C(CCC#N)NC(=O)C(C)(C)NC(=O)[C@@H](N)Cc2c[nH]cn2)[C@@H](C)O)[C@@H](C)O)C(=O)NC(CCCc2ccc(F)cc2F)C(N)=O)cc1 (single isomer, unassigned) [compound 78] | 16.6 ± 0.41 | 22.9 ± 0.32 | 36.7 ± 0.11 | 22 ± 0.03 | 21 ± 0.05 | 20 ± 0.07 | 18 ± 0.04 | 18 ± 0.03 | 70 | – | 71 | – | – | 100 | – | 100 | 100 | 0.5 | 0.5 | 0.5 | half-life (t1/2) when incubated with human plasma [4]: (9) h
5 | CCc1cc(OC)ccc1-c1ccc(CC(C(=O)N(C)C(CCCc2ccccc2)C(N)=O)N(C)C(=O)[C@H](CC(=O)O)NC(=O)[C@H](CO)NC(=O)[C@@H](NC(=O)C(C)(Cc2ccccc2F)NC(=O)[C@@H](NC(=O)CNC(=O)C(CCC#N)NC(=O)C(C)(C)NC(=O)[C@@H](N)Cc2c[nH]cn2)[C@H](C)O)[C@H](C)O)cc1 (single isomer, unassigned) [compound 142] | 12.9 ± 0.14 | 15.8 ± 0.13 | 29.9 ± 0.15 | 10 ± 0.03 | 8 ± 0.03 | 6 ± 0.22 | 2 ± 0.13 | 0 | 77 | 9 | 80 | 8 | (8) h | 13 | (6) h | 50 | 82 | 1 | – | – | –
6 | CCc1cc(OC)ccc1-c1ccc(CC(NC(=O)[C@H](CC(=O)O)NC(=O)[C@H](CO)NC(=O)[C@@H](NC(=O)[C@H](Cc2ccccc2)NC(=O)[C@@H](NC(=O)CNC(=O)C(CCC#N)NC(=O)C(C)(C)NC(=O)[C@@H](N)Cc2c[nH]cn2)[C@@H](C)O)[C@@H](C)O)C(=O)NC(CCCc2cccc(Cl)c2)C(N)=O)cc1 (single isomer, unassigned) [compound 31] | 16.8 ± 0.20 | 22.7 ± 0.29 | 36.6 ± 0.31 | 6 ± 0.02 | 5 ± 0.03 | 2 ± 0.61 | 0 | 0 | 76 | – | 78 | – | – | 100 | – | 100 | 100 | 0.5 | 0.5 | 0.5 | half-life (t1/2) when incubated with human plasma [4]: (9) h
